From US20250108088A1, “REGENERATIVE PEPTIDES AND METHODS FOR USE THEREOF” (priority 2023, published 2025)

Test system: Normal human dermal fibroblasts (HNDF)
Assay: Myofibroblast transition assay (MFT), aSMA immunofluorescence
Assay type: cell-based
Details: N = 3; for Myofibroblast transition (MFT), aSMA/cell, % change relative to control: TGF-Beta induced HNDF, control of no peptide; for MFT, Representative value from experiments (% change relative to control): most effective significant concentration of 10, 100, 1000 ng/ml
Text: The myofibroblast transition (MFT) assay determines the effect of the peptide on inhibiting the transition of fibroblasts to myofibroblasts. The extracellular matrix produced by myofibroblasts may be produced in excess and may not be remodeled during tissue healing, leaving behind the fibrous connective tissue that forms a scar. Thus, the ability to regulate the degree of MFT may enable control of scarring. To determine if the peptides provided herein affect MFT, the following assay was performed.
Normal human dermal fibroblasts (HNDF) were cultured in high glucose Dulbecco's modified eagle medium (DMEM) supplemented with 10% fetal bovine serum (FBS) and 5 ml of 10,000 units of penicillin/streptomycin. Cells were cultured on 10 cm plates with media changes every 2 days. Cells were passaged in 0.25% Trypsin/EDTA after achieving 80% confluency.
To induce myofibroblast transition (MFT), normal human dermal fibroblasts (HNDFs) were split from 1-10 cm plates to 5-96 well plates. Cells were then allowed to grow the next day. The following day, cells were serum starved (1% FBS in DMEM) for 4 hours prior to adding 20 ng/ml of TGF-Beta to all wells of the plate. 1000 μM of Vactosertib (TEW-7197/EW-7197) was added to serve as a positive control and different concentrations of peptides were added to serve as the test articles. The cells were then exposed to the compounds for 5 more days before fixation.
The cells were fixed in paraformaldehyde (PFA) for 10-15 minutes, then washed 2× in PBS. Cells were blocked in 4% BSA for 30 minutes at 23° C. Cells were stained with the primary alpha-smooth muscle actin (aSMA) antibody (1:100) for 1 hour at 23° C. or left out at 4° C. overnight. Cells were rinsed 2× with BSA and then the secondary antibody mix was added: Alexa 488 (1:500) and DAPI (1:1000) for 30 min at 23° C. or 1 hr at 4° C. The plates were covered during staining, then rinsed 2× in BSA and stored in PBS.
Plates were imaged using the Celigo Imaging Cytometer by Nexcelcom. The ratio of fluorescent expression of alpha-smooth muscle actin (aSMA) and DAPI were quantified to determine the amount of aSMA/cell.
The change (normalized to the control) in MFT for each concentration is shown along with the p value for all experiments relative to the control of no peptide.

Row | Substance | Myofibroblast transition (MFT), aSMA/cell, % change relative to control (10 ng/ml peptide) | Myofibroblast transition (MFT), aSMA/cell, % change relative to control (100 ng/ml peptide) | MFT, Representative value from experiments (% change relative to control) | Myofibroblast transition (MFT), aSMA/cell, % change relative to control (1000 ng/ml peptide)
1 | AKEVEKH [MBBey4] | −0.2205% | −0.4435% | −0.4435 p = (0.007) % | –
2 | ASCRC [MBb5] | −0.298% | −0.409% | −0.6162 p = (0.01) % | −0.6162%
3 | ASLHGNGLRKRLRKFRNK [MBb66] | – | −0.3446% | −0.3446 p = (0.024) % | –
4 | AVHELGH [MBb24] | – | −0.1419% | −0.1419 p = (0.003) % | –
5 | CDADKKDYCLFGRCQYIVELETFRCRCQKGYYGERCVYLEL [EA-1] | −0.1401% | −0.2928% | −0.2928 p = (0.016) % | −0.0906%
6 | CGGLPGLRKRLRKFRNK [MBb41] | – | −0.6154% | −0.6154 p = (0.03) % | −0.2177%
7 | DCRICS [MBa1] | – | −0.2174% | −0.2174 p = (0.04) % | –
8 | DPCPLCGLRKRLRKFRNK [MBb12] | – | −0.4465% | −0.4465 p = (0.037) % | –
9 | DVLDKRLFWIQYNREG [MBWhit45] | −0.6471% | −0.6265% | −0.6471 p = (0.018) % | −0.6136%
10 | EEIDA [MBb1.2] | – | −0.3496% | −0.3496 p = (0.006) % | –
11 | EELTRGLRKRLRKFRNK [MBb23] | – | −0.1203% | −0.1203 p = (0.016) % | –
12 | EKKNPGLRKRLRKFRNK [MBb73] | – | −0.07558% | −0.07558 p = (0.04) % | –
13 | ENIKKGLRKRLRKFRNK [MBb37] | – | −0.1426% | −0.1426 p = (0.032) % | –
14 | EYENPGLRKRLRKFRNK [MBb10] | – | −0.2694% | −0.2694 p = (0.023) % | –
15 | FFLRIHPDGRVDGVR [MBWhit1] | – | −0.3667% | −0.3667 p = (0.038) % | –
16 | GDIR VR (GDIRVR) [MBWhit33] | – | −0.3175% | −0.3527 p = (0.032) % | −0.3527%
17 | GESKGLGLRKRLRKFRNK [MBb36] | −0.07698% | −0.1964% | −0.1964 p = (0.002) % | –
18 | HIWA VVPCIR (HIWAVVPCIR) [MBBey3] | – | −0.1442% | −0.1442 p = (0.037) % | –

Row | Substance | Myofibroblast transition (MFT), aSMA/cell, % change relative to control (10 ng/ml peptide) | Myofibroblast transition (MFT), aSMA/cell, % change relative to control (100 ng/ml peptide) | MFT, Representative value from experiments (% change relative to control) | Myofibroblast transition (MFT), aSMA/cell, % change relative to control (1000 ng/ml peptide)
19 | HNGILID [MBBey24] | −0.05283% | 0.06835% | −0.05283 p = (0.005) % | 0.2745%
20 | IAHELGH [MBb2.2] | −0.1592% | −0.1476% | −0.1928 p = (0.021) % | −0.1928%
21 | IAHELGHNLGMSH [MBb25] | – | −0.1769% | −0.1769 p = (0.008) % | –
22 | IGERCQYRDLKWWELR [MBWhit44] | −0.702% | −0.5753% | −0.702 p = (0.025) % | −0.6111%
23 | IGPGLP [MBb76] | – | −0.03421% | −0.1847 p = (0.009) % | −0.1847%
24 | IRTLDCDADKKDYCLFGRCQYIVELETFRCRCQKGYYGERCVYLEL [EA-2] | −0.1343% | −0.3241% | −0.3241 p = (0.014) % | −0.00716%
25 | ITCPHCQ [MBa9] | – | – | −0.3194 p = (0.02) % | −0.3194%
26 | KTHPGG [MBWhit38] | – | −0.3798% | −0.3798 p = (0.006) % | –
27 | LKEKKPAKEK [PC-1] | – | – | −0.4788 p = (0.038) % | −0.4788%
28 | LPRDER [MBb3.2] | – | – | −0.3874 p = (0.003) % | −0.3874%
29 | MDQGYPKETVDDFPG [MBBey12] | – | −0.6665% | −0.6665 p = (0.007) % | −0.4491%
30 | NTCHQCGLRKRLRKFRNK [MBb35] | – | −0.3719% | −0.4001 p = (0.016) % | −0.4001%
31 | PHKGLFCHFGSPANRKIGV [MBWhit47] | −0.6575% | −0.5896% | −0.6575 p = (0.021) % | −0.5755%
32 | PPSILGLRKRLRKFRNK [MBb44] | – | −0.1751% | −0.1751 p = (0.005) % | –
33 | QLFEDVIAEP [MBBey 38] | −0.3071% | – | −0.3071 p = (0.007) % | –
34 | RNPDSPQ [MBBey14] | −0.3781% | −0.3863% | −0.5336 p = (0.012) % | −0.5336%
35 | RVIWA [MBb4.2] | – | −0.2113% | −0.2416 p = (0.003) % | −0.2416%
